Source: patent US20160220557A1, “USE OF ACETYL-COA CARBOXYLASE INHIBITORS FOR TREATING ACNE VULGARIS” (PFIZER INC., priority 2013, published 2016)
Read-outs that look alike come from different tables or passages of the source.

Assays:
[1] = biological target: T1, recombinant human ACC1 (rhACC1) (Homo sapiens, UniProt Q13085, DEL44-44); test: Transcreener ADP detection FP assay, recombinant human ACC1 inhibition; format: biochemical; settings: recombinant human ACC1, 50 μM ATP; read-out: Transcreener Assay hACC1 IC50
T1 construct: His6 (N); made in house; host or cells: SF9 insect cells (baculovirus)

[2] = biological target: T2, recombinant human ACC2 (rhACC2) (Homo sapiens, UniProt O00763, V2141I); test: Transcreener ADP detection FP assay, recombinant human ACC2 inhibition; format: biochemical; settings: recombinant human ACC2, 50 μM ATP; read-out: Transcreener Assay hACC2 IC50
T2 construct: made in house; host or cells: CHO cells, tetracycline-induced (pcDNA5 FRT TO-TOPO)

[3] = tested on: SZ95 human sebocyte cells; test: Inhibition of de novo lipogenesis (14C-acetate incorporation) in cultured human sebocytes; format: cell-based; settings: SZ95 sebocytes, 14C-acetate incorporation into lipids relative to vehicle, read-out: C9302E Sebocyte IC50
Description: SZ95 sebocytes were grown in Human Sebocyte Growth Medium (HSGM) (Sebomed® medium (Biochrom: F8205) supplemented with 10% heat-inactivated fetal bovine serum, 1% penicillin/streptomycin, 1 mM calcium chloride and 5 ng/mL recombinant human epidermal growth factor (Life Tech: PHG0311)). At 90% confluence, cells were washed three times with PBS and then detached with 0.05% Trypsin-EDTA. Cells were centrifuged and resuspended in HSGM containing 10% charcoal-stripped serum (Life Tech: 12676-029). Cells were then plated in 24-well plates at a density of 0.25×10^6 cells/well and were incubated overnight to enable cell adherence to the culture plate.
Cells were treated with a dose response of compound, and each dose was assayed in triplicate. Briefly, compounds were dissolved in DMSO stocks and diluted 1:1000 into charcoal-stripped media. 0.1% DMSO without compound was used as the vehicle control. After a 1 hour preincubation with compound or vehicle, 0.25 μCi ^14C-acetic acid (American Radiolabeled Chemicals: ARC0158B) was added to each well. Plates were then incubated for an additional two hours. At the end of the incubation period, cells were removed from incubator, placed on ice, and then washed twice with ice-cold PBS to remove free ^14C-acetic acid. Plates were sealed and stored at −20° C. until analysis.
Plates were shaken for 1 hour at room temperature to induce lysis. Lysates were transferred to individual 1.5 mL polypropylene tubes, and wells were washed with 175 μl of PBS, which was added to lysates. 450 μl of a 1:1 (v/v) chloroform:methanol solution was then added to each tube, and then all tubes were vortexed for 10 seconds and centrifuged at 20,000×g for 5 minutes at room temperature to separate aqueous from organic phase. A 25 μl aliquot was removed from the bottom organic layer of each sample and added to 6 mL OptiPhase supermix (PerkinElmer: 1200-439) scintillation fluid. Counts of ^14C incorporated into lipids were assessed by scintillation counting. DNL (counts of ^14C incorporated into lipids) was expressed for compound treated cells relative to DNL in the vehicle control treated cells for determination of EC50 values. For a subset of the compounds tested, a second aliquot (3×35 μl) of the organic layer of each sample was removed and applied to a TLC lane (Analtech Silica Gel G Plates). Radiolabeled lipids were resolved using a 2-solvent system. Solvent 1 contained a 100:100:100:40:36 mixture of ethyl acetate:isopropyl alcohol:CHCl3:MeOH:0.25% KCl and solvent 2 a 70:27:3 hexane:diethyl ether:acetic acid mix. The TLC plate was dried under nitrogen for 30 minutes and [^14C]-calibrators added to a vacant lane. Bands were visualized and quantitated using a Molecular Dynamics' Storm 860 Phosphorimager system following 18-36 hours exposure to a Phosphorimager screen.

hACC1 = hACC1 (Homo sapiens, UniProt Q13085); test: Radiometric ACC1 inhibition assay; format: biochemical
hACC2 = hACC2 (Homo sapiens, UniProt O00763); test: Radiometric ACC2 inhibition assay; format: biochemical
Chain of hACC2 (O00763 whole entry): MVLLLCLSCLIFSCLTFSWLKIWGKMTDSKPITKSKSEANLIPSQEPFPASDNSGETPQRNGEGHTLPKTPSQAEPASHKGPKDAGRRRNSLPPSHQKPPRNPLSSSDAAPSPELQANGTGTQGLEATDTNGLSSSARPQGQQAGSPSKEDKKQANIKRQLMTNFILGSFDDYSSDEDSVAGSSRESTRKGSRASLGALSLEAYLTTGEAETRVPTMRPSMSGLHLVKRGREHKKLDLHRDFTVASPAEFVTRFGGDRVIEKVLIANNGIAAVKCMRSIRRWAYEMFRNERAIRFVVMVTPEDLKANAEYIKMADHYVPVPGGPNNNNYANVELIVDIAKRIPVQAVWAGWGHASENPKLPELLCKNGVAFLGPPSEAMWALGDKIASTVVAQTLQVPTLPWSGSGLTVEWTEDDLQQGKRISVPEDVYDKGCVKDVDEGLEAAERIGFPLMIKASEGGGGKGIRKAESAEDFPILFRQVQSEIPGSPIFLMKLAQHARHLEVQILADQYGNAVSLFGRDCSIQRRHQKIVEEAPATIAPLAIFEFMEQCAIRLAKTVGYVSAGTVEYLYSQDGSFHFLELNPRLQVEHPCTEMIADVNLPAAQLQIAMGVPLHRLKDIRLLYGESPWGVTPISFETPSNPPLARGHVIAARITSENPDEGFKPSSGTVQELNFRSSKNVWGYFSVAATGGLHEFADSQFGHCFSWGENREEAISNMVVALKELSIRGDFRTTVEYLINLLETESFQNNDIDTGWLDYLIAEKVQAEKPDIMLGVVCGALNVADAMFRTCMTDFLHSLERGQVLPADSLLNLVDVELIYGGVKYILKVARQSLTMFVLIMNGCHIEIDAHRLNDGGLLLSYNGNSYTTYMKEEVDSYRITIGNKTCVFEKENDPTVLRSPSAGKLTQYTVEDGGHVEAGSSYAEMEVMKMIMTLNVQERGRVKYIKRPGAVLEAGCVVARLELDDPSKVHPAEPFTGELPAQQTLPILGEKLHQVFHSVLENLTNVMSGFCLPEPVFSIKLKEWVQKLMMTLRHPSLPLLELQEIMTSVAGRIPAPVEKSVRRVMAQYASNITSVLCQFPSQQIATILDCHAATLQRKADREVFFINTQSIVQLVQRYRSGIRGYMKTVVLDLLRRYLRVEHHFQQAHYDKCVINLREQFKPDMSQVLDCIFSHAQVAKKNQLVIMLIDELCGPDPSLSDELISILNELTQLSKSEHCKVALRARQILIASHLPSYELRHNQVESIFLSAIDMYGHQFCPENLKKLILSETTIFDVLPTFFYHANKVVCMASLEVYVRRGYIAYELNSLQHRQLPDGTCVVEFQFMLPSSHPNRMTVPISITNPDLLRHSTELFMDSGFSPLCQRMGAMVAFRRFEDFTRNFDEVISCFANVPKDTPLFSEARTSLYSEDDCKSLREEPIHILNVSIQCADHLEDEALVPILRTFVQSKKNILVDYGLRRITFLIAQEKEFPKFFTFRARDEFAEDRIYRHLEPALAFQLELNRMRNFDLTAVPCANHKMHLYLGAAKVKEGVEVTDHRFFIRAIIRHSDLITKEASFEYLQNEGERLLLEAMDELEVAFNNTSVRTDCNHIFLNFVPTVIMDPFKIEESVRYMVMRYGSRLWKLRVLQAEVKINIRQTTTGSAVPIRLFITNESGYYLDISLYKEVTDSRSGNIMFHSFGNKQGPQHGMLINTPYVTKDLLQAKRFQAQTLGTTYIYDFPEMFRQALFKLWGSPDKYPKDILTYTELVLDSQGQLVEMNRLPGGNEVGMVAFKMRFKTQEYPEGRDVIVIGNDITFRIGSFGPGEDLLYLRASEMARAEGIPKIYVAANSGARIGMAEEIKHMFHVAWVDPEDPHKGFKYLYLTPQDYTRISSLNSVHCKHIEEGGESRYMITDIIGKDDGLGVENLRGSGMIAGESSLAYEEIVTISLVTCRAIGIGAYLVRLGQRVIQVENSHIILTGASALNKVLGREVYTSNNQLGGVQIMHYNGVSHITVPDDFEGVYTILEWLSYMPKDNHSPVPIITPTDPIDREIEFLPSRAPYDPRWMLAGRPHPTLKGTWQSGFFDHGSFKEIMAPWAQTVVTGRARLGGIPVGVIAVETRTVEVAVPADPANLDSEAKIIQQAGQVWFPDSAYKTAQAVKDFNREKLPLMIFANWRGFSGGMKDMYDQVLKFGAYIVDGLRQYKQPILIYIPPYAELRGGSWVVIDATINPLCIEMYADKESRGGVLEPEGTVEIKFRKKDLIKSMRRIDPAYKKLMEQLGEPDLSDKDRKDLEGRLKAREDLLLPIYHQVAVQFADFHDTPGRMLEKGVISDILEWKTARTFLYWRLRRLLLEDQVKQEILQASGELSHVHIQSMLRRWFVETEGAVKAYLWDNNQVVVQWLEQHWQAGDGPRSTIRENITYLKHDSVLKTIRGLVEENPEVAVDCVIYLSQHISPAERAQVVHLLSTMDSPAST

T2 sequence (O00763 whole entry V2141I): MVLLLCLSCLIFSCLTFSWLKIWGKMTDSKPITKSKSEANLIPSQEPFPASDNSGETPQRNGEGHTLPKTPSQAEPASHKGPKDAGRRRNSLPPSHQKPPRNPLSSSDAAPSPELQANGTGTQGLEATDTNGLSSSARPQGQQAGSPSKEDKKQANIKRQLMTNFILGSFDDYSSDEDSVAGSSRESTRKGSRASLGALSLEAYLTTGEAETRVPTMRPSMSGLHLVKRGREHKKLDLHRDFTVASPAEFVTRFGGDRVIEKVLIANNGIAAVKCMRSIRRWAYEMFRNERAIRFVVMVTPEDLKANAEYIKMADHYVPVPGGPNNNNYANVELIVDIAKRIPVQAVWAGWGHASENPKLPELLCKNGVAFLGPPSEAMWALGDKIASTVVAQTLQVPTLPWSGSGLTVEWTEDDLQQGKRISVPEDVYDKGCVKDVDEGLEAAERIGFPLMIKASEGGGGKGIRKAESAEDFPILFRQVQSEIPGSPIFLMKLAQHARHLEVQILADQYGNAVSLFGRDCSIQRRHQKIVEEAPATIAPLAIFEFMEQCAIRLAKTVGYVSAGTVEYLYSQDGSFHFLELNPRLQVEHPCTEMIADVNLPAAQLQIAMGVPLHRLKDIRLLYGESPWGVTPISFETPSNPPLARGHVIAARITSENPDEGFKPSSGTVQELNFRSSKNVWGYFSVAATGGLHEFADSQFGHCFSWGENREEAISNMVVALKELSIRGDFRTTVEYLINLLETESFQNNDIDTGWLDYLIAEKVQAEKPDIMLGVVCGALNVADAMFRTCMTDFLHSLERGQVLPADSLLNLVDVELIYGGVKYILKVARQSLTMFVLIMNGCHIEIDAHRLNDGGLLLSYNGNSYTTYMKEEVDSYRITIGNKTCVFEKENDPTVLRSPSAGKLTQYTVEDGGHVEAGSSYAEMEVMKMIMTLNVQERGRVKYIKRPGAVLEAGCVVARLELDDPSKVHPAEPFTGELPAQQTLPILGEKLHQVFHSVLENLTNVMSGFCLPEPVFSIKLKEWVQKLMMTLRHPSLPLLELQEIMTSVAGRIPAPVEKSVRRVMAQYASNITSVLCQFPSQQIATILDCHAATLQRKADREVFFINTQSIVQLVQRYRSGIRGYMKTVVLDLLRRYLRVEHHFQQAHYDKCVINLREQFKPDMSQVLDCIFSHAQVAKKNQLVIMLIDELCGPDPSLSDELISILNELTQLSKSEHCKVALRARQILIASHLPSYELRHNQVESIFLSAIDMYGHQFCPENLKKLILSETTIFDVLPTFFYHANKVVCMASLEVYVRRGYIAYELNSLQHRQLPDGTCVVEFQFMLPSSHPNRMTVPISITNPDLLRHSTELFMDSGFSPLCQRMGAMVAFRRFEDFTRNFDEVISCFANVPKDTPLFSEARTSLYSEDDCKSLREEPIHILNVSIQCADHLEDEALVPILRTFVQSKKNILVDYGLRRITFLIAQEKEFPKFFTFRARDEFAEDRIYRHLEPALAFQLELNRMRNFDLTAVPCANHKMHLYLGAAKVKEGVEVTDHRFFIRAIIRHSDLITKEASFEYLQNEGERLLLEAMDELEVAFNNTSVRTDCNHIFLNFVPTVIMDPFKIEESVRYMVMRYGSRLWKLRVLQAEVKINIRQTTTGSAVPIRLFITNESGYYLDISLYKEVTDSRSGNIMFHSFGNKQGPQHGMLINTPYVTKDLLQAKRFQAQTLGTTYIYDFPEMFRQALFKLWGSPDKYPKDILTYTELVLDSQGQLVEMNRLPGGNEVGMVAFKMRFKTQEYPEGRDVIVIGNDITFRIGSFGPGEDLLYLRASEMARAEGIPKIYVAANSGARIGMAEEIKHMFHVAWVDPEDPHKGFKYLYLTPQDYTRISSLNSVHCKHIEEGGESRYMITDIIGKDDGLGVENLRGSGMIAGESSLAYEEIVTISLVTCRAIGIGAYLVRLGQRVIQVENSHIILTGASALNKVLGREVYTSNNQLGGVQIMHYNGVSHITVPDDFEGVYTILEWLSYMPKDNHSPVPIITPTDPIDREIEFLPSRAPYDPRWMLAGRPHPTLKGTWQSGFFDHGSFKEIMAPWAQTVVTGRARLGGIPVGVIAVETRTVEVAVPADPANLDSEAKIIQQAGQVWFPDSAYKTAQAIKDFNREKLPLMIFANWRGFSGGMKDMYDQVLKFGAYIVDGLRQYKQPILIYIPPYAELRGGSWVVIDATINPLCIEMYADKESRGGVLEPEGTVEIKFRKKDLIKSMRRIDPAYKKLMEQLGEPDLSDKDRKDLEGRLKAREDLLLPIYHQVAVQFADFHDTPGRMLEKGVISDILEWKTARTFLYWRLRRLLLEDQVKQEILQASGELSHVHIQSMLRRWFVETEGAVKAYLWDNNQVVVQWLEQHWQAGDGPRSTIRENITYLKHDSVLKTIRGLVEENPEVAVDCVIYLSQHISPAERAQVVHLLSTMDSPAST

Row | IC50 [1] | IC50 [2] | IC50 ([3]; Homo sapiens) | IC50 (hACC1) | IC50 (hACC2) | IC50 [3] | Compound
1 | 2200 nM | 1100 nM | 4310 nM | – | – | – | CC(=O)NCC(C)c1ccc2nc(Oc3ccc(OCC4CC4)nc3)sc2c1 (stereo not drawn) [Example 15, N-(2-(2-((6-(cyclopropylmethoxy)pyridin-3-yl)oxy)benzo[d]thiazol-6-yl)propyl)acetamide]
2 | 11000 nM | 2200 nM | – | – | – | – | CCCCC1=NC2(CCN(C(=O)c3c(NC(=O)NCC)sc4ccccc34)CC2)C(=O)N1 [Example 20, 1-(3-(2-butyl-4-oxo-1,3,8-triazaspiro[4.5]dec-1-ene-8-carbonyl)benzo[b]thiophen-2-yl)-3-ethyl urea]
3 | 16 nM | 4 nM | 1690 nM | – | – | – | COc1cc(C(=O)N2CCC3(CC2)CC(=O)c2cc(-c4nnn[nH]4)ccc2O3)cc2c1ccn2C1CC1 [Example 10, 1′-(1-cyclopropyl-4-methoxy-1H-indole-6-carbonyl)-6-(1H-tetrazol-5-yl)spiro[chromane-2,4′-piperidin]-4-one]
4 | – | – | 94 nM | – | – | – | COc1nccc2ccc(C(=O)N3CCC4(CC3)Cc3cn(C(C)(C)C)nc3C(=O)N4)cc12 [Example 7, 2′-(tert-butyl)-1-(1-methoxyisoquinoline-7-carbonyl)-4′,6′-dihydrospiro[piperidine-4,5′-pyrazolo[3,4-c]pyridin]-7′(2′H)-one]
5 | – | – | – | 5 nM | 4 nM | 103 nM | CC(C)n1ncc2c1C(=O)CC1(CCN(C(=O)c3ccc4[nH]nc(C#N)c4c3)CC1)C2 [Example 6, 5-(1-isopropyl-7-oxo-1,4,6,7-tetrahydrospiro[indazole-5,4′-piperidin]-1′-ylcarbonyl)-1H-indazole-3-carbonitrile]
6 | – | – | – | > 10000 nM | – | – | CCCCCCCCCCCCCCOc1ccc(C(=O)OC(C)C)o1 [Example 18, isopropyl 5-(tetradecyloxy)furan-2-carboxylate]
7 | – | – | – | > 10000 nM | – | – | CCCCCCCCCCCCCCOc1ccc(C(=O)OCc2oc(=O)oc2C)o1 [Example 19, (5-methyl-2-oxo-1,3-dioxol-4-yl)methyl 5-(tetradecyloxy)furan-2-carboxylate]
8 | 44 nM | 7 nM | – | 98 nM | 2 nM | – | CC(=O)N[C@@H](C)c1cc(-c2cnc(Oc3ccc(OCC4CC4)cc3)s2)no1 [Example 21, (S)—N-(1-(3-(2-(4-(cyclopropylmethoxy)phenoxy)thiazol-5-yl)isoxazol-5-yl)ethyl)acetamide]
9 | 4 nM | 2 nM | 28.2 nM | 3 nM | 4 nM | – | COc1ccc2ccc(C(=O)N3CCC4(CC3)CC(=O)c3c(cnn3C(C)C)C4)cc2c1 [Example 2, 1-isopropyl-1′-(7-methoxy-2-naphthoyl)-4,6-dihydrospiro[indazole-5,4′-piperidin]-7(1H)-one]
10 | – | – | – | 4 nM | 7 nM | 217 nM | CC(C)n1ncc2c1C(=O)CC1(CCN(C(=O)c3ccc4[nH]nc(C#N)c4c3)CC1)C2 [Example 11, 5-(1-isopropyl-7-oxo-1,4,6,7-tetrahydrospiro[indazole-5,4′-piperidine]-1′-carbonyl)-1H-indazole-3-carbonitrile]
11 | 62 nM | 30 nM | 201 nM | 5 nM | 8 nM | – | CC(C)n1ncc2c1C(=O)CC1(CCN(C(=O)c3ccc4[nH]ncc4c3)CC1)C2 [Example 5, 1′-(1H-indazole-5-carbonyl)-1-isopropyl-4,6-dihydrospiro[indazole-5,4′-piperidin]-7(1H)-one]
12 | 41 nM | 28 nM | – | – | – | – | O=C(O)CCc1ccc(-c2ccc(S(=O)(=O)N[C@H]3CC[C@H](C(=O)N4CCOC[C@@H]4c4ccccc4)CC3)cc2)cc1 [Example 24, 3-(4′-(N-((1S,4r)-4-((S)-3-phenylmorpholine-4-carbonyl)cyclohexyl)sulfamoyl)-[1,1′-biphenyl]-4-yl)propanoic acid]
13 | 141 nM | 29 nM | 121 nM | 26 nM | 2 nM | – | CC(=O)N[C@@H](C)C#Cc1ccc(Oc2ccc(OC(C)C)cc2)cc1 [Example 12, (S)—N-(4-(4-(4-isopropoxyphenoxy)phenyl)but-3-yn-2-yl)acetamide]
14 | 12 nM | 8 nM | 8930 nM | 23 nM | 5 nM | – | CCOc1cc(C(=O)N2CCC3(CC2)CC(=O)c2cc(-c4cncc(C(N)=O)c4)ccc2O3)cc(OCC)c1-c1cccc(C(=O)O)c1 [Example 14, 4′-(6-(5-carbamoylpyridin-3-yl)-4-oxospiro[chromane-2,4′-piperidine]-1′-carbonyl)-2′,6′-diethoxy-[1,1′-biphenyl]-3-carboxylic acid]
15 | 17 nM | 12 nM | 15 nM | 6 nM | 5 nM | – | CC(C)n1ncc2c1C(=O)CC1(CCN(C(=O)c3ccc4ccc(NC(C)(C)C)nc4c3)CC1)C2 [Example 4, 1′-(2-(tert-butylamino)quinoline-7-carbonyl)-1-isopropyl-4,6-dihydrospiro[indazole-5,4′-piperidin]-7(1H)-one]
16 | 680 nM | 109 nM | – | 687 nM | 16 nM | – | CC(=O)N[C@@H](C)CCc1ccc(Oc2ccc(OC(C)C)cc2)cc1 [Example 23, (S)—N-(4-(4-(4-isopropoxyphenoxy)phenyl)butan-2-yl)acetamide]
17 | > 2980 nM | 180 nM | 3280 nM | – | – | – | CCCOc1ccc(Oc2ccc(-c3ccc(C(C)NC(C)=O)cc3)cn2)cc1 (stereo not drawn) [Example 13, N-(1-(4-(6-(4-propoxyphenoxy)pyridin-3-yl)phenyl)ethyl)acetamide, reference compound]
18 | 74 nM | 69 nM | 2770 nM | – | – | – | CC(C)(O)[C@@H](NC(=O)[C@H]1CC[C@H](NS(=O)(=O)c2ccc(C(F)(F)F)cc2)CC1)c1ccccc1 [Example 16, (1R,4S)—N—((S)-2-hydroxy-2-methyl-1-phenylpropyl)-4-((4-(trifluoromethyl)phenyl)sulfonamido)cyclohexane-1-carboxamide]
19 | 4050 nM | 957 nM | – | – | – | – | CC(=O)NC(C)c1ccc(-c2cnc(Oc3ccc(OCC4CC4)cc3)s2)cc1 (stereo not drawn) [Example 22, N-(1-(4-(2-(4-(cyclopropylmethoxy)phenoxy)thiazol-5-yl)phenyl)ethyl)acetamide]
20 | – | – | – | > 10000 nM | – | – | CCCCCCCCCCCCCCOc1ccc(C(=O)OCC(F)(F)F)o1 [Example 17, 2,2,2-trifluoroethyl 5-(tetradecyloxy)furan-2-carboxylate]

Row | Compound | IC50 [1] | IC50 [2] | IC50 ([3]; Homo sapiens) | IC50 (hACC1) | IC50 (hACC2) | IC50 [3]
21 | CO[C@H]1CCCC[C@@H](c2ccccc2)OC(=O)[C@@H](C)[C@@]2(O)O[C@H]([C@@H](C)[C@H](O)[C@H]2OC)[C@@H](C)/C=C/[C@H]1OC [Example 9, reference compound] | 20 nM | 1200 nM | 4 nM | 140 nM | 16 nM | –
